Experimental data taken from US12643881B2, “Bicyclic amine CDK12 inhibitors” (Incyte Corporation, priority 2021, dated 2026).

What follows are molecules tested against T1, CDK12 complexed with Cyclin K (Homo sapiens, UniProt Q9NYV4) (assay: CDK Enzymatic Assays (HTRF, LANCE Ultra kinase assay), Example A1). Conditions: enzyme pre-incubated with compounds for 60 minutes prior to addition of ATP (1 mM final) and Ulight-peptide; reaction 60-90 minutes at room temperature.
T1 construct: GST (N)
Type: biochemical
Source text: Example A1. CDK Enzymatic Assays
The following activity of the CDK enzymes in complex with their respective cyclins we assayed: CDK1 complexed with Cyclin B1; CDK2 complexed with Cyclin E1; CDK4 complexed with Cyclin D1; CDK6 complexed with Cyclin D1; CDK6 complexed with Cyclin D3; CDK9 complexed with Cyclin T1; CDK7 complexed with Cyclin H/MAT1; CDK2 complexed with Cyclin A2; CDK5 complexed with p35; CDK12 complexed with Cyclin K; CDK13 complexed with Cyclin K. These in vitro enzyme activity are assayed using homogeneous time-resolved energy transfer (HTRF), which measures phosphorylation of a peptide substrate. The LANCER Ultra kinase assay (PerkinElmer) uses a ULight™-labeled EIF4E-binding protein 1 (THR37/46) peptide (DYSTTPGGTLFSTTPGTRI (SEQ ID NO: 1)) substrate and a Europium-labeled anti-phospho-4E-BP1 antibody (CDK2, CDK1, CDK4, CDK6, CDK9, CDK12, CDK13) or ULight™-labeled Myelin Basic Protein peptide (VTPRTPPP (SEQ ID NO: 2)) substrate and a Europium-labeled anti-phospho-MBP antibody (CDK7). Each CDK enzyme activity assays utilized human CDK co-expressed as N-terminal GST-tagged protein with its full length cyclin partner using a baculovirus expression system.
Enzyme was pre-incubated with compounds for 30 minutes (CDK1,2,4,6,9) or 60 minutes (CDK7, CDK12, CDK13) prior to addition of ATP and Ulight-peptide (1 mM and 50 nM final, respectively), in assay buffer containing 50 mM HEPES pH 7.5, 1 mM EGTA, 10 mM MgCl2, 2 mM DTT, 0.05 mg/mL BSA, and 0.01% Tween 20. The reaction was then incubated for 60-90 minutes at room temperature. The reactions were stopped by the addition of EDTA and Europium labeled antibody, for a final concentration of 15 mM and 1.0-1.5 nM, respectively. HTRF signals were read after 15-120 minutes. A ratio of fluorescence transferred to the labeled substrate (665 nm) relative to fluorescence of the Europium donor (620 nm) represents the extent of phosphorylation. Ratios for treated wells were normalized to DMSO only (100% activity) and no enzyme (0% activity) controls. Normalized data was analyzed using a three or four parameter dose response curve to determine IC50 for each compound and are shown in Table A. Control reference inhibitors were included on each plate.

T1 sequence (Q9NYV4 whole entry): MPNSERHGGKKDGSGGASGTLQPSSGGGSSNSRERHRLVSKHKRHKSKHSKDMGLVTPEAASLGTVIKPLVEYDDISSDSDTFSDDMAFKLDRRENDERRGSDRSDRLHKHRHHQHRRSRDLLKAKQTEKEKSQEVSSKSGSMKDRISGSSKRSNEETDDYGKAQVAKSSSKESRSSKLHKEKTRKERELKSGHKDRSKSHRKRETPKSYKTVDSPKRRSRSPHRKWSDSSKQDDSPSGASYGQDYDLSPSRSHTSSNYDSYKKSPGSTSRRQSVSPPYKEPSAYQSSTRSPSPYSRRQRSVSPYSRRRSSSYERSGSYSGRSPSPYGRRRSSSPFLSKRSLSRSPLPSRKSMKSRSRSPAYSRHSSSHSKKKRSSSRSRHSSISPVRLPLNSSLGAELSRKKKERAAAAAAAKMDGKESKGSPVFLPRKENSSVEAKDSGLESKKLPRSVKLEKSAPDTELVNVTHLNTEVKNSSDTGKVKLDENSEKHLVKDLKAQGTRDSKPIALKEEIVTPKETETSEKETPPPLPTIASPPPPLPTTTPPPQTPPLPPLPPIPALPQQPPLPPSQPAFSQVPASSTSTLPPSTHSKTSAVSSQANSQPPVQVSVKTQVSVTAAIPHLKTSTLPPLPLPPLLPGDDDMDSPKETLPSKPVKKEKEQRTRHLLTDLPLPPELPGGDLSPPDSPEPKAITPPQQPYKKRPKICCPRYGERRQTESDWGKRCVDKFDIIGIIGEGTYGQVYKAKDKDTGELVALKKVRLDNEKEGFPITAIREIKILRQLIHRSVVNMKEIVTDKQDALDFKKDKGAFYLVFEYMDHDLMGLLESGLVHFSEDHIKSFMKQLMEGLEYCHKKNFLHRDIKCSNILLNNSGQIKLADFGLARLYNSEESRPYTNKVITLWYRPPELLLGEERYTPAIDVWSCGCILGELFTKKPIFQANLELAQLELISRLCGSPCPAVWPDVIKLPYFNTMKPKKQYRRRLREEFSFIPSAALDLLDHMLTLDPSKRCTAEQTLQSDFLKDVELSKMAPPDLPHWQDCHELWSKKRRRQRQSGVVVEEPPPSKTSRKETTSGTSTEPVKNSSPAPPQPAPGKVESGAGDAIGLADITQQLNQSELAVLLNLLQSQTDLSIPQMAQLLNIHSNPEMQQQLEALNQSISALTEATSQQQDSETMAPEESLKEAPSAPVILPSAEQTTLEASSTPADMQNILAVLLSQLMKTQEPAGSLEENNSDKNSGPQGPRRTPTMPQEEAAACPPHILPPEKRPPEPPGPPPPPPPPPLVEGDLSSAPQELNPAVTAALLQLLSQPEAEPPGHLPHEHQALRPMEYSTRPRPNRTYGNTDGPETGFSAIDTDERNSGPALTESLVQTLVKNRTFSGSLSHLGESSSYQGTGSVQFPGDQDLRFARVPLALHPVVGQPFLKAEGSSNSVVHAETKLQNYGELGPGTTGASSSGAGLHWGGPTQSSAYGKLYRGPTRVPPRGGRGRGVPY
T1 sequence (O75909 whole entry partner): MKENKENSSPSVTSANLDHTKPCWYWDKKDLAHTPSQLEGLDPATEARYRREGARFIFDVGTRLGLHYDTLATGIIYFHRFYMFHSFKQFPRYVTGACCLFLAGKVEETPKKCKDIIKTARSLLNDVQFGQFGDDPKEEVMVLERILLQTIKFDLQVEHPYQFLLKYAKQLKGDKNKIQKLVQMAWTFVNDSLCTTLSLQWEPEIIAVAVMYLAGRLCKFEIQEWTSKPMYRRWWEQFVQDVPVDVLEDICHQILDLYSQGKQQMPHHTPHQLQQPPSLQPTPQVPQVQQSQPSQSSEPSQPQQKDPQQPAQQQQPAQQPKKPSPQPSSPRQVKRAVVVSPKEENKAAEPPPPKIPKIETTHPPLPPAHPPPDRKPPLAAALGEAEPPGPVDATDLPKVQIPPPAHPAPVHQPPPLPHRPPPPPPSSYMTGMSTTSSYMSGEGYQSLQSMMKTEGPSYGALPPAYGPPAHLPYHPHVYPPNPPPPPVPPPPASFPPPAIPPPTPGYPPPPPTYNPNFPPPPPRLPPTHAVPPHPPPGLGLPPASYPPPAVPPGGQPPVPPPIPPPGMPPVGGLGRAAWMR

| IC50 [nM] | Structure (SMILES) |
| --- | --- |
| 50 to 500 | CC#CC(=O)Nc1ccc2c(c1)nc([C@H]1CCC[C@@H](Nc3ncc(C#N)c(OC)n3)C1)n2C [Example 54, N-(2-((1S,3R)-3-((5-Cyano-4-methoxypyrimidin-2-yl)amino)cyclohexyl)-1-methyl-1H-benzo[d]imidazol-5-yl)but-2-ynamide] |
| 50 to 500 | C=C(F)C(=O)Nc1ccc2c(c1)C(=O)N([C@H]1CCC[C@@H](Nc3ncc(C#N)c(OC)n3)C1)C2 [Example 56, N-(2-((1S,3R)-3-((5-Cyano-4-methoxypyrimidin-2-yl)amino)cyclohexyl)-3-oxoisoindolin-5-yl)-2-fluoroacrylamide] |
| < 50 | C=CC(=O)Nc1cc2nc(N3C[C@H](F)C[C@@H](Nc4ncc(C(F)(F)F)cn4)C3)n(C)c2cc1C1CC1 [Example 95, N-(6-Cyclopropyl-2-((3R,5R)-3-fluoro-5-((5-(trifluoromethyl)pyrimidin-2-yl)amino)piperidin-1-yl)-1-methyl-1H-benzo[d]imidazol-5-yl)acrylamide] |
| < 50 | C=CC(=O)Nc1ccc2c(c1)nnn2[C@H]1CCC[C@@H](Nc2ncc(C#N)cn2)C1 [Example 71, N-(1-((1S,3R)-3-((5-Cyanopyrimidin-2-yl)amino)cyclohexyl)-1H-benzo[d][1,2,3]triazol-5-yl)acrylamide] |
| < 50 | C=CC(=O)Nc1ccc2c(c1)C(=O)N([C@H]1CCC[C@@H](Nc3ncc(C(F)(F)F)c(N4CC[C@@H](N(C)C)C4)n3)C1)C2 [Example 62, N-(2-((1S,3R)-3-((4-((R)-3-(Dimethylamino)pyrrolidin-1-yl)-5-(trifluoromethyl)pyrimidin-2-yl)amino)cyclohexyl)-3-oxoisoindolin-5-yl)acrylamide] |
| 50 to 500 | C=CC(=O)Nc1ccc2c(c1)nc(C(F)F)n2[C@H]1CCC[C@@H](Nc2ncc(C#N)cn2)C1 [Example 84, N-(1-((1S,3R)-3-((5-Cyanopyrimidin-2-yl)amino)cyclohexyl)-2-(difluoromethyl)-1H-benzo[d]imidazol-5-yl)acrylamide] |
| < 50 | C=CC(=O)Nc1c(Br)cc2c(nc(N3CCC[C@@H](Nc4ncc(C(F)(F)F)cn4)C3)n2C)c1C [Example 103, (R)—N-(6-Bromo-1,4-dimethyl-2-(3-((5-(trifluoromethyl)pyrimidin-2-yl)amino)piperidin-1-yl)-1H-benzo[d]imidazol-5-yl)acrylamide] |
| < 50 | C=CC(=O)Nc1ccc2c(c1)C(=O)N([C@H]1CCC[C@@H](Nc3ncc(C#N)c(NCC(C)(C)O)n3)C1)C2 [Example 66, N-(2-((1S,3R)-3-((5-Cyano-4-((2-hydroxy-2-methylpropyl)amino)pyrimidin-2-yl)amino)cyclohexyl)-3-oxoisoindolin-5-yl)acrylamide] |
| < 50 | C=C(Cl)C(=O)Nc1ccc2c(c1)nc([C@H]1CCC[C@@H](Nc3ncc(C#N)c(OC)n3)C1)n2C [Example 80, 2-Chloro-N-(2-((1S,3R)-3-((5-cyano-4-methoxypyrimidin-2-yl)amino)cyclohexyl)-1-methyl-1H-benzo[d]imidazol-5-yl)acrylamide] |
| < 50 | COc1nc(N[C@@H]2CCC[C@H](N3Cc4ccc(NC(=O)C(C)Br)cc4C3=O)C2)ncc1C#N (stereo partly drawn) [Example 55, 2-Bromo-N-(2-((1S,3R)-3-((5-cyano-4-methoxypyrimidin-2-yl)amino)cyclohexyl)-3-oxoisoindolin-5-yl)propanamide] |
| < 50 | C=CC(=O)Nc1cc2nc(N3CCC(F)(F)[C@@H](Nc4ncc(C(F)(F)F)cn4)C3)n(C)c2cc1C [Example 97, (S)—N-(2-(4,4-Difluoro-3-((5-(trifluoromethyl)pyrimidin-2-yl)amino)piperidin-1-yl)-1,6-dimethyl-1H-benzo[d]imidazol-5-yl)acrylamide] |
| < 50 | CCOC(=O)/C=C/C(=O)Nc1ccc2c(c1)nc([C@H]1CCC[C@@H](Nc3ncc(C#N)c(OC)n3)C1)n2C [Example 48, Ethyl (E)-4-((2-((1S,3R)-3-((5-Cyano-4-methoxypyrimidin-2-yl)amino)cyclohexyl)-1-methyl-1H-benzo[d]imidazol-5-yl)amino)-4-oxobut-2-enoate] |

More lines, now with the values behind:

| Structure (SMILES) | IC50 [nM] |
| --- | --- |
| C=CC(=O)Nc1ccc2c(c1)C(=O)N([C@H]1CCC[C@@H](Nc3ncc(C)c(OC)n3)C1)C2 [Example 13, N-(2-((1S,3R)-3-((4-Methoxy-5-methylpyrimidin-2-yl)amino)cyclohexyl)-3-oxoisoindolin-5-yl)acrylamide] | 50 to 500 |
| C=CC(=O)Nc1cccc2c1ncn2[C@H]1CCC[C@@H](Nc2ncc(C#N)c(OC)n2)C1 [Example 27, N-(1-((1S,3R)-3-((5-Cyano-4-methoxypyrimidin-2-yl)amino)cyclohexyl)-1H-benzo[d]imidazol-4-yl)acrylamide] | < 50 |
| C=CC(=O)Nc1ccc2c(c1)C(=O)N([C@H]1CCC[C@@H](Nc3cc(C(F)(F)F)c(C#N)cn3)C1)C2 [Example 18, N-(2-((1S,3R)-3-((5-Cyano-4-(trifluoromethyl)pyridin-2-yl)amino)cyclohexyl)-3-oxoisoindolin-5-yl)acrylamide] | < 50 |
| C=CC(=O)Nc1ccc2c(c1)C(=O)N([C@H]1CCC[C@@H](Nc3ncc(C#N)c(C)n3)C1)C2 [Example 9, N-(2-((1S,3R)-3-((5-Cyano-4-methylpyrimidin-2-yl)amino)cyclohexyl)-3-oxoisoindolin-5-yl)acrylamide] | < 50 |
| C=CC(=O)Nc1ccc2nc(N3CCC[C@@H](Nc4ncc(C#N)c(OC)n4)C3)nn2c1 [Example 44, (R)—N-(2-(3-((5-Cyano-4-methoxypyrimidin-2-yl)amino)piperidin-1-yl)-[1,2,4]triazolo[1,5-a]pyridin-6-yl)acrylamide] | < 50 |
| C=CC(=O)Nc1nn(C)c2cc(N3CCC[C@@H](Nc4ncc(C#N)c(OC)n4)C3)ncc12 [Example 1, (R)—N-(6-(3-((5-Cyano-4-methoxypyrimidin-2-yl)amino)piperidin-1-yl)-1-methyl-1H-pyrazolo[4,3-c]pyridin-3-yl)acrylamide] | < 50 |
| C=CC(=O)Nc1ccc2nc(N3CCC[C@@H](Nc4ncc(C#N)c(OC)n4)C3)sc2c1 [Example 46, (R)—N-(2-(3-((5-Cyano-4-methoxypyrimidin-2-yl)amino)piperidin-1-yl)benzo[d]thiazol-6-yl)acrylamide] | < 50 |
| C=CC(=O)Nc1ccc2c(c1)C(=O)N([C@H]1CCC[C@@H](Nc3ccc(C#N)c(C)n3)C1)C2 [Example 15, N-(2-((1S,3R)-3-((5-Cyano-6-methylpyridin-2-yl)amino)cyclohexyl)-3-oxoisoindolin-5-yl)acrylamide] | > 500 |
| CC#CC(=O)Nc1nn(C)c2cc(N3CCC[C@@H](Nc4ncc(C#N)c(OC)n4)C3)ncc12 [Example 30, (R)—N-(6-(3-((5-Cyano-4-methoxypyrimidin-2-yl)amino)piperidin-1-yl)-1-methyl-1H-pyrazolo[4,3-c]pyridin-3-yl)but-2-ynamide] | < 50 |
| C=CC(=O)Nc1ccc2c(c1)cc(N1CCC[C@@H](Nc3ncc(C#N)c(OC)n3)C1)n2C [Example 39, (R)—N-(2-(3-((5-Cyano-4-methoxypyrimidin-2-yl)amino)piperidin-1-yl)-1-methyl-1H-indol-5-yl)acrylamide] | > 500 |
| COc1nc(N[C@@H]2CCCN(c3cc4c(cn3)c(NC(=O)C(C)Br)nn4C)C2)ncc1C#N (stereo partly drawn) [Example 32, 2-Bromo-N-(6-((R)-3-((5-cyano-4-methoxypyrimidin-2-yl)amino)piperidin-1-yl)-1-methyl-1H-pyrazolo[4,3-c]pyridin-3-yl)propanamide] | < 50 |
| C=CC(=O)Nc1ccc2c(c1)C(=O)N([C@H]1CCC[C@@H](Nc3ncc(C)c(C(F)(F)F)n3)C1)C2 [Example 5, N-(2-((1S,3R)-3-((5-Methyl-4-(trifluoromethyl)pyrimidin-2-yl)amino)cyclohexyl)-3-oxoisoindolin-5-yl)acrylamide] | < 50 |
| C=CC(=O)Nc1cccc2c(N3CCC[C@@H](Nc4ncc(C#N)c(OC)n4)C3)nn(C)c12 [Example 35, (R)—N-(3-(3-((5-Cyano-4-methoxypyrimidin-2-yl)amino)piperidin-1-yl)-1-methyl-1H-indazol-7-yl)acrylamide] | < 50 |
| C=CC(=O)Nc1nn(C)c2cc(N3CC[C@@H](Nc4ncc(C#N)c(OC)n4)C3)ncc12 [Example 2, (R)—N-(6-(3-((5-Cyano-4-methoxypyrimidin-2-yl)amino)pyrrolidin-1-yl)-1-methyl-1H-pyrazolo[4,3-c]pyridin-3-yl)acrylamide] | < 50 |
| C=CC(=O)Nc1ccc2c(c1)C(=O)N([C@H]1CCC[C@@H](Nc3ncc(CC)cn3)C1)C2 [Example 10, N-(2-((1S,3R)-3-((5-Ethylpyrimidin-2-yl)amino)cyclohexyl)-3-oxoisoindolin-5-yl)acrylamide] | < 50 |
